Results from patent US11660265B2, “Method of rapidly achieving therapeutic concentrations of triptans for treatment of migraines and cluster headaches” (ZP Opco, Inc., priority 2018, dated 2023).
≈ marks a conversion by molar mass, not a printed value. Like-named read-outs stand apart in the source and are kept apart here. One block for each molecule: values may come before it.

What was measured:
[1] = tested on: 5HT1B/1D; conditions: cited from earlier work
[2] = biological target: T1, recombinant human 5-HT1D receptors (Homo sapiens, UniProt P28221); test: Ligand-receptor binding kinetics, 3H-5-carboxamidotryptamine competition, CHO-K1 membranes
T1 construct: expressed in transfected cells; host or cells: CHO-K1
T1 sequence (P28221 whole entry): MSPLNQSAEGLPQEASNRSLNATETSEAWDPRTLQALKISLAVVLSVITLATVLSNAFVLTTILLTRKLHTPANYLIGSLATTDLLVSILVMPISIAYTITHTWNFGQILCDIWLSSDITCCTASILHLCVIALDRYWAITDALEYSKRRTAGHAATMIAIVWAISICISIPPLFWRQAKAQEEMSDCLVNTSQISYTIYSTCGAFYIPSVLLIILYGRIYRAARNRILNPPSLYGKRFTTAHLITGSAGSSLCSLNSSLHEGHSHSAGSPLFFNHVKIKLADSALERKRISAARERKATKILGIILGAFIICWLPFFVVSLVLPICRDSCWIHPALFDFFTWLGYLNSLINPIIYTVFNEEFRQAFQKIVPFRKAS
Method: (§1) Membrane preparations were derived from transfected CHO-K1 cells expressing recombinant human 5-HT1B and 5-HT1D receptors. […] After incubating for various lengths of time, membranes were washed by filtration and residual ^3H counts were determined on a microplate scintillation counter. On-rate constant (kon), off-rate constant (koff), and equilibrium dissociation constant (KD) were determined using nonlinear regression on Prism 4 (GraphPad), and Xlfit (IDBM) software. The following formulae were used in calculating additional parameters using previously derived^2 pharmacokinetic data in healthy human volunteers. Residence time for each ligand on 5-HT1B and 5-HT1D receptors=1/koff.

[3] = biological target: T2, recombinant human 5-HT1B receptors (Homo sapiens, UniProt P28222); test: as above
T2 construct: expressed in transfected cells; host or cells: CHO-K1
T2 sequence (P28222 whole entry): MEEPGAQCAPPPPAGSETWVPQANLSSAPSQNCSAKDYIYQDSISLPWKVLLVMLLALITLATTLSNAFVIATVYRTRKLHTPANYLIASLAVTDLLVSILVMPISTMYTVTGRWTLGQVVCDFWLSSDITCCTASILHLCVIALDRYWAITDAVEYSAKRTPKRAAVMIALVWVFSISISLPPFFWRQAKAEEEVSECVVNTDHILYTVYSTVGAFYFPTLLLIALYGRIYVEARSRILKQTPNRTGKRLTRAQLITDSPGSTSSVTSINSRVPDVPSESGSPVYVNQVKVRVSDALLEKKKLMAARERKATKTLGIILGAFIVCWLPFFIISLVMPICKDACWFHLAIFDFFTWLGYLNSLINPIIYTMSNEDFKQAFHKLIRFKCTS
Method: as §1

[4] = tested on: migraine; conditions: cited from earlier work; for Pain freedom at 2 hours / Pain relief at 2 hours: lowest oral dose
[5] = clinical
Method: The final treatment administered was 3.8 mg on a 10 cm^2 patch using an applicator with 0.52 Joule of application energy in the intracutaneous microneedle system described herein. The products tested were:
This was a single-center, open-label, randomized five-way crossover study (Part 1) followed by a sequential study of two additional treatments (Parts 2 and 3). After obtaining informed consent and establishing eligibility, each subject received each of the seven study treatments once, followed by in-clinic monitoring and extensive blood sample collection for pharmacokinetic analysis. […] Plasma samples from the initial dosing days were sent to the analytical laboratory for analysis, and tolerability for each of the dose levels was summarized. […] During Part 3, subjects received a single 3.8 mg patch (applied with a 0.52 J applicator) and also completed identical procedures to the previous dosing days. After completion of the seven dosing days, subjects were assessed one final time and dismissed from the study.
Twenty subjects were enrolled in the study, 10 males and 10 females. The subjects mean age was 29 years±3.5 years with a mean BMI of 24.4±3.5.
PK parameters were summarized by treatment group using descriptive statistics (arithmetic means, standard deviations, coefficients of variation, sample size, minimum, maximum, and median).

[6] = cited from earlier work; for Bioavailability: oral tablet
[7] = Solubility of zolmitriptan in various acids; assay type: physicochemical; conditions: 5 °C, thermodynamic from solid, 2-8° C.
Description: The suspension was then centrifuged.

[8] = in vivo; set-up: species or system swine; conditions: Yorkshire, pig, iv
Method: The M207 patch was tested in swine. Intravenously administered zolmitriptan was used as a control. The inner thigh of the swine was used as the site of administration.
The low limit of quantitation (LLOQ) and high-limit of quantitation (HLOQ) were 0.1 and 1000 ng/mL, respectively. A four minute method utilizing high performance liquid chromatography-electrospray ionization-tandem mass spectrometry (HPLC-ESI-MS/MS) was developed for quantitation of zolmitriptan and its two major metabolites in HGP plasma. The instrumentation consist of Agilent® 1200 pumps, CTC PAL® Autosampler with cooling stack, AB Sciex® TurboV® ESI source, and API 4000® mass spectrometer.
All plasma samples and standards were first protein precipitated using 100% methanol and then diluted with 30% solution of acetonitrile at 1:2 ratio (Plasma: 30% ACN), 20 μL of this solution was injected into autosample. The autosample was equipped with a 100 μL syringe and a 100 μL loop. […]
The HPLC method used was a reversed phase gradient method (0.0 min, 10% B; 0.5 min, 10% B; 1.0 min, 40% B; 1.7 min, 40% B; 2.1 min, 10% B; 4.0 min, 10% B). […] During the mass spectrometer acquisition, eleven MRM transitions were monitored. […] The peak areas under each corresponding MRM transitions were summed and compared to that of spiked standard plasma samples to calculated concentration for each sample. […]

[9] = both, human, in vivo, AUC0-2 hr (SD)
[10] = both, human, in vivo, AUC0-last (SD)
[11] = both, human, in vivo, AUC2 hrs, Mean
[12] = both, human, in vivo, AUCinf, Mean
[13] = both, human, in vivo, Cmax (SD)
[14] = both, human, in vivo, Cmax, Mean
[15] = both, human, in vivo, Tmax Med (Range)
[16] = both, human, in vivo, t1/2, Mean
[17] = plasma N-desmethyl zolmitriptan metabolite
[18] = plasma N-desmethyl zolmitriptan metabolite, in ng·h/mL

Molecule: CNCCc1c[nH]c2ccc(C[C@H]3COC(=O)N3)cc12 [N-desmethyl zolmitriptan]
- 5HT1B/1D potency relative to the parent [1]: 2 to 6 times
- Kd [2]: 0.43 nM
- koff [2]: 0.0009 s⁻¹
- kon [2]: 2.1e+06 M⁻¹ s⁻¹
- Kd [3]: 0.92 nM
- koff [3]: 0.000833 s⁻¹
- kon [3]: 900000 M⁻¹ s⁻¹

- AUC(0-t) [5, 9]: 70.9 ng·h/mL
- AUC(0-t) [5, 10]: 101 ng·h/mL
- AUC(0-t) [5, 11]: 70.9 ng·h/mL
- AUC(0-inf) [5, 12]: 105 ng·h/mL
- Cmax [5, 13]: 88.8 ng/mL
- Cmax [5, 14]: 88.8 ng/mL
- Tmax [5, 15]: 0.167 h
- half-life ([5]; both, human, in vivo, sc, t1/2 Mean (SD)): 1.14 h
- Tmax ([5]; both, human, in vivo, sc, tmax Median (Range)): 0.167 h
- half-life [5, 16]: 1.14 h
Molecule: CNS(=O)(=O)Cc1ccc2[nH]cc(CCN(C)C)c2c1 [Sumatriptan, sumatriptan]
- 24-hour recurrence rate ([4]; among those who achieved headache resolution, 6 mg, different trial): 38%
- Tmax ([6]; conventional oral tablet): about 2 hours
- Bioavailability [6]: about 15%

- AUC0-last / Dose ([5]; both, human, in vivo): 8.6 ng·h/mL/mg
- Time to peak plasma concentration of the N-desmethyl metabolite ([5]; both, human, in vivo): 2.7 h
- Tmax of N-desmethyl metabolite ([5]; both, human, in vivo): 2.71 h
- Tmax, Mean ([5]; both, human, in vivo): 1.79 h
- AUC(0-t) [5, 9]: 4.7 ng·h/mL
- AUC(0-t) ([5]; both, human, in vivo, AUC0-last): 22.2 ng·h/mL
- AUC(0-t) [5, 10]: 22.2 ng·h/mL
- AUC(0-t) [5, 11]: 4.72 ng·h/mL
- AUC(0-t) ([5]; both, human, in vivo, AUC2 hrs, Median): 4.92 ng·h/mL
- AUC(0-inf) [5, 12]: 27.2 ng·h/mL
- AUC(0-inf) ([5]; both, human, in vivo, AUCinf, Median): 27.1 ng·h/mL
- AUC(0-t) ([5]; both, human, in vivo, AUCt, Mean): 22.2 ng·h/mL
- AUC(0-t) ([5]; both, human, in vivo, AUCt, Median): 22.6 ng·h/mL
- Cmax ([5]; both, human, in vivo, Cmax): 3.8 ng/mL
- Cmax [5, 13]: 3.8 ng/mL
- Cmax [5, 14]: 3.77 ± 1.51 ng/mL
- Cmax ([5]; both, human, in vivo, Cmax, Median): 3.7 ng/mL
- Tmax ([5]; both, human, in vivo, Tmax): 1.8 ± 1.27 h
- Tmax ([5]; both, human, in vivo, Tmax (range), median): 1 h
- Tmax [5, 15]: 1 h
- Tmax ([5]; both, human, in vivo, Tmax, Mean): 1.79 h
- Tmax ([5]; both, human, in vivo, Tmax, Median): 1 h
- half-life [5, 16]: 3.27 ± 0.8 h
- half-life ([5]; both, human, in vivo, t1/2, Median): 3.28 h
Molecule: CN(C)CCc1c[nH]c2ccc(C[C@H]3COC(=O)N3)cc12 [Zolmitriptan 2.5 mg Oral Tablet, zolmitriptan]
- Reduction of Cmax and AUC by administration with food ([6]; conventional release tablets): 13-16%
- Bioavailability [6]: 41 and 48%

- solubility ([7]; aqueous buffer, 0.1 M citric acid): 88.6 mg/mL (≈ 308 mM)
- solubility ([7]; aqueous buffer, 0.1 M maleic acid): 50.5 mg/mL (≈ 176 mM)
- solubility ([7]; aqueous buffer, 0.1 M succinic acid): 59.1 mg/mL (≈ 206 mM)
- solubility ([7]; aqueous buffer, 0.1 M tartaric acid): 63.3 mg/mL (≈ 220 mM)
- solubility ([7]; simulated gastric fluid, 0.1 M HCl): 33.3 mg/mL (≈ 116 mM)
- AUC(0-t) ([5]; both, human, in vivo, 2.5 mg, AUC2 hrs Mean (SD)): 4.72 ng·h/mL
- AUC(0-inf) ([5]; both, human, in vivo, 2.5 mg, AUCinf Mean (SD)): 27.2 ng·h/mL
- Cmax ([5]; both, human, in vivo, 2.5 mg, Cmax Mean (SD)): 3.77 ng/mL
- half-life ([5]; both, human, in vivo, 2.5 mg, t1/2 Mean (SD)): 3.27 h
- Tmax ([5]; both, human, in vivo, 2.5 mg, tmax Median (Range)): 1 h
- half-life ([5]; both, human, in vivo, t1/2 Mean (SD)): 1.53 h
- Tmax ([5]; both, human, in vivo, tmax Median (Range)): 0.3 h
- Kd [2]: 0.34 nM
- koff ([2]; read-out: koff (converted)): 0.001 s⁻¹
- kon ([2]; read-out: kon (converted)): 2.9e+06 M⁻¹ s⁻¹
- Kd [3]: 1.47 nM
- koff ([3]; read-out: koff (converted)): 0.00127 s⁻¹
- kon ([3]; read-out: kon (converted)): 883000 M⁻¹ s⁻¹
- Tmax [8]: 1 min
Molecule: CN(C)CCc1c[nH]c2ccc(C[C@H]3COC(=O)N3)cc12 [Zolmitriptan, zolmitriptan]
- Pain freedom at 2 hours [4]: 29%
- Pain relief at 2 hours [4]: 62%
- Tmax ([6]; nasal administration): about 1.5 hours

Molecule: CNS(=O)(=O)CCc1ccc2[nH]cc(C3CCN(C)CC3)c2c1 [naratriptan]
- Pain freedom at 2 hours [4]: 18%
- Pain relief at 2 hours [4]: 49%

Molecule: CN(C)CCc1c[nH]c2ccc(C[C@H]3COC(=O)N3)cc12 [nasal treatment of zolmitriptan, zolmitriptan]
- Patients pain free at 1 hour ([4]; nasal treatment): about 10%

Molecule: CN(C)CCc1c[nH]c2ccc(C[C@H]3COC(=O)N3)cc12 [orally disintegrating tablets, zolmitriptan]
- Tmax ([6]; orally disintegrating tablets): about 3 hours

Molecule: zolmitriptan [Zolmitriptan 2.5 mg Oral Tablet]
- AUC2 hrs, Mean [5, 17]: 2.31 ng·h/mL
- AUC2 hrs, Median [5, 17]: 2.24 ng·h/mL
- Cmax, Mean [5, 17]: 2.08 ng/mL
- Cmax, Median [5, 17]: 2.04 ng/mL
- AUCinf, Mean [5, 18]: 14.55
- AUCinf, Median [5, 18]: 14.31
- AUCt, Mean [5, 18]: 13.71
- AUCt, Median [5, 18]: 13.76
